Source: patent publication US20260042764A1, “COMPOSITIONS AND METHODS FOR INHIBITION OF KRAS” (TheRas, Inc., priority 2022, published 2026)

Assays:
GP2d cells (KRAS G12D) = assay: Cell-based pERK HTRF assay in GP2d cell (Biological Example 2); details: GP2d (KRAS G12D) cells, pERK HTRF
How it was run: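 Phospho-ERK is measured by HTRF following a 60 min compound exposure at 0.25% DMSO, with a 9-point half-log curve topping at 1 μM or 100 nM.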

[1] = target: T1, Avi-KRAS G12V (1-169) GppNHp/RAF1 RBD-3xFLAG (52-151) (Homo sapiens, UniProt P01116, G12V); assay: Raf1-KRAS G12V-GppNHP disruption HTRF assay (Biological Example 1); assay type: binding; details: KRAS G12V, GppNHp-loaded; Table 11
T1 construct: Avi-KRAS G12V (1-169)
How it was run: (§1)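 Using HTRF, the loss of KRAS–effector RAF1 complex was quantified in 50 mM Tris pH 7.5 buffer with 100 mM NaCl and 0.1% BSA. The protein step and reagent step ran 1 h each at room temperature. Activity normalized with DMSO taken as 100%.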

[2] = target: T2, Avi-KRAS G12R (1-169) GppNHp/RAF1 RBD-3xFLAG (52-151) (Homo sapiens, UniProt P01116, G12R); assay: Raf1-KRAS G12R-GppNHP disruption HTRF assay (Biological Example 1); assay type: binding; details: KRAS G12R, GppNHp-loaded; Table 11
T2 construct: Avi-KRAS G12R (1-169)
How it was run: as §1

[3] = target: T3, Avi-KRAS WT (1-169) GppNHp/RAF1 RBD-3xFLAG (52-151) (Homo sapiens, UniProt P01116); assay: Raf1-KRAS WT-GppNHP disruption HTRF assay (Biological Example 1); assay type: binding; details: KRAS WT, GppNHp-loaded; Table 11
T3 construct: Avi-KRAS WT (1-169)
How it was run: as §1

[4] = target: T4, Avi-KRAS G12D (1-169) GppNHp/RAF1 RBD-3xFLAG (52-151) (Homo sapiens, UniProt P01116, G12D); assay: Raf1-KRAS G12D-GppNHP disruption HTRF assay (Biological Example 1); assay type: binding; details: KRAS G12D, GppNHp-loaded; Table 11
T4 construct: Avi-KRAS G12D (1-169)
How it was run: as §1

T3 sequence (P01116 1-169 isoform P01116-2): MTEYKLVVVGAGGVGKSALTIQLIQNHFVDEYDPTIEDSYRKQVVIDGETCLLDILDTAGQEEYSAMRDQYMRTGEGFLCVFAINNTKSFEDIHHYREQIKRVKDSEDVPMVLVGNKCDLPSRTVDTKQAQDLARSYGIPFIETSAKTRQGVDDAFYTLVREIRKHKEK
T2 sequence (P01116 1-169 isoform P01116-2 G12R): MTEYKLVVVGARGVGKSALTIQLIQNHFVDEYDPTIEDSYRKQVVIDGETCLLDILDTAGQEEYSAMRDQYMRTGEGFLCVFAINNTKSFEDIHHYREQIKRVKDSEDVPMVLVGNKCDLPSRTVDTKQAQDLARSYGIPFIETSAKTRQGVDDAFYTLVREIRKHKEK
T1 sequence (P01116 1-169 isoform P01116-2 G12V): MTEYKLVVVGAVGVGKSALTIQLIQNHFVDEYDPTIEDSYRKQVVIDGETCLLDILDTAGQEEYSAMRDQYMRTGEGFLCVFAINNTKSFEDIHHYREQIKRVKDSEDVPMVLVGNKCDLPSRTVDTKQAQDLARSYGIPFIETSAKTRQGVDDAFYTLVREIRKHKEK
T4 sequence (P01116 1-169 isoform P01116-2 G12D): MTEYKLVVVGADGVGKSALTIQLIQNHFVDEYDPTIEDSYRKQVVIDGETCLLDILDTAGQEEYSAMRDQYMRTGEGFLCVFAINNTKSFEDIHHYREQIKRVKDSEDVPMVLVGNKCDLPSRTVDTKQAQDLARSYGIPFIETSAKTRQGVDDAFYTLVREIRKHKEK

SMILES | IC50 (GP2d cells (KRAS G12D); GP2d) [nM] | IC50 [1] [nM] | IC50 [2] [nM] | IC50 [3] [nM] | IC50 [4] [nM] | IC50 (GP2d cells (KRAS G12D)) [nM]
N#Cc1c(N)sc2c(F)ccc(-c3c(C(F)(F)F)cc4c(N5CCCC5)nc(OC[C@@]56CCCN5C[C@H](F)C6)nc4c3F)c12 [Compound 156] | < 100 | 100 to 1000 | 100 to 1000 | 100 to 1000 | 100 to 1000 | 
CN(c1nc(OC[C@@]23CCCN2C[C@H](F)C3)nc2c(F)c(-c3ccc(F)c4sc(N)c(C#N)c34)c(C(F)(F)F)cc12)C1CCC(O)CC1 (stereo partly shown) [Compound 66] |  | 100 to 1000 | 100 to 1000 | 100 to 1000 | 100 to 1000 | 100 to 1000
CS(=O)(=O)N1CCN(c2nc(OC[C@@]34CCCN3C[C@H](F)C4)nc3c(F)c(-c4ccc(F)c5sc(N)c(C#N)c45)c(C(F)(F)F)cc23)CC1 [Compound 96] | < 100 | 1000 to 10000 | 1000 to 10000 | 1000 to 10000 | 1000 to 10000 | 
N#Cc1c(N)sc2c(F)ccc(-c3c(C(F)(F)F)cc4c(N5CC[C@@H](CO)C5)nc(OC[C@@]56CCCN5C[C@H](F)C6)nc4c3F)c12 [Compound 124] | 100 to 1000 | 100 to 1000 | 100 to 1000 | 100 to 1000 | 100 to 1000 | 
CN(CCO)c1nc(OC[C@@]23CCCN2C[C@H](F)C3)nc2c(F)c(-c3ccc(F)c4sc(N)nc34)c(C(F)(F)F)cc12 [Compound 82] | 100 to 1000 | 1000 to 10000 | 1000 to 10000 | 1000 to 10000 | 100 to 1000 | 
CN(c1nc(OC[C@@]23CCCN2C[C@H](F)C3)nc2c(F)c(-c3ccc(F)c4sc(N)c(C#N)c34)ccc12)[C@H]1C[C@@H](O)C1 [Compound 28] | 100 to 1000 | 1000 to 10000 | 1000 to 10000 | 100 to 1000 | 100 to 1000 | 
CN(c1nc(OC[C@@]23CCCN2C[C@H](F)C3)nc2c(F)c(-c3ccc(F)c4sc(N)c(C#N)c34)c(C(F)(F)F)cc12)[C@H]1C[C@@H](O)C1 [Compound 18, 2-amino-7-fluoro-4-(8-fluoro-2-(((2R,7aS)-2-fluorotetrahydro-1H-pyrrolizin-7a(5H)-yl)methoxy)-4-(((1s,3R)-3-hydroxycyclobutyl)(methyl)amino)-6-(trifluoromethyl)quinazolin-7-yl)benzo[b]thiophene-3-carbonitrile] | < 100 | 100 to 1000 | 100 to 1000 | < 100 | < 100 | 
N#Cc1c(N)sc2c(F)ccc(-c3c(C(F)(F)F)cc4c(N5CCC(O)CC5)nc(OC[C@@]56CCCN5C[C@H](F)C6)nc4c3F)c12 [Compound 127] | < 100 | 100 to 1000 | 100 to 1000 | 100 to 1000 | 100 to 1000 | 
CN(CC1(CO)CC1)c1nc(OC[C@@]23CCCN2C[C@H](F)C3)nc2c(F)c(-c3ccc(F)c4sc(N)c(C#N)c34)c(C(F)(F)F)cc12 [Compound 83] | < 100 | 100 to 1000 | 100 to 1000 | 100 to 1000 | 100 to 1000 | 
N#Cc1c(N)sc2c(F)ccc(-c3c(C(F)(F)F)cc4c(N5CCN(CCO)C(=O)C5)nc(OC[C@@]56CCCN5C[C@H](F)C6)nc4c3F)c12 [Compound 121] | 100 to 1000 | 100 to 1000 | 100 to 1000 | 100 to 1000 | 100 to 1000 | 
CN(c1nc(OC[C@@]23CCCN2C[C@H](F)C3)nc2c(F)c(-c3ccc(F)c4sc(N)c(C#N)c34)c(C(F)(F)F)cc12)[C@@H]1C[C@H](O)[C@@H]1CO [Compound 37] | < 100 | 100 to 1000 | < 100 | < 100 | < 100 | 
N#Cc1c(N)sc2c(F)ccc(-c3c(C(F)(F)F)cc4c(N5C6CCC5COC6)nc(OC[C@@]56CCCN5C[C@H](F)C6)nc4c3F)c12 [Compound 131] | < 100 | 100 to 1000 | 100 to 1000 | 100 to 1000 | 100 to 1000 | 
CCC(=O)N1CC[C@@H](N(C)c2nc(OC[C@@]34CCCN3C[C@H](F)C4)nc3c(F)c(-c4ccc(F)c5sc(N)c(C#N)c45)c(C(F)(F)F)cc23)C1 [Compound 113] | < 100 | 100 to 1000 | 100 to 1000 | 100 to 1000 | 100 to 1000 | 
CCC(=O)N1C[C@H](C)N(c2nc(OC[C@@]34CCCN3C[C@H](F)C4)nc3c(F)c(-c4ccc(F)c5sc(N)c(C#N)c45)c(C(F)(F)F)cc23)C[C@H]1C (atropisomer, axis not shown) [Compound 99] | < 100 | > 10000 | 1000 to 10000 | 1000 to 10000 | 1000 to 10000 | 
CN(c1nc(OC[C@@]23CCCN2C[C@H](F)C3)nc2c(F)c(-c3ccc(F)c4sc(N)c(C#N)c34)c(C(F)(F)F)cc12)C(CO)CO [Compound 80] | < 100 | 100 to 1000 | 100 to 1000 | 100 to 1000 | < 100 | 
CN(c1nc(OC[C@@]23CCCN2C[C@H](F)C3)nc2c(F)c(-c3ccc(F)c4sc(N)c(C#N)c34)c(C(F)(F)F)cc12)C1(CO)CC1 [Compound 170] | < 100 | 100 to 1000 | 100 to 1000 | 100 to 1000 | 100 to 1000 | 
N#Cc1c(N)sc2c(F)ccc(-c3c(C(F)(F)F)cc4c(N(CCO)C5CC5)nc(OC[C@@]56CCCN5C[C@H](F)C6)nc4c3F)c12 [Compound 171] | < 100 | 100 to 1000 | 100 to 1000 | 100 to 1000 | 100 to 1000 | 
CN(c1nc(OC[C@@]23CCCN2C[C@H](F)C3)nc2c(F)c(-c3ccc(F)c4sc(N)c(C#N)c34)c(C(F)(F)F)cc12)[C@@H]1CCOC1 [Compound 132] | < 100 | 100 to 1000 | 100 to 1000 | 100 to 1000 | 100 to 1000 | 
CN(c1nc(OC[C@@]23CCCN2C[C@H](F)C3)nc2c(F)c(-c3ccc(F)c4sc(N)c(C#N)c34)c(C(F)(F)F)cc12)C1CCC(O)CC1 (stereo partly shown) [Compound 65] | < 100 | 100 to 1000 | 100 to 1000 | 100 to 1000 | 100 to 1000 | 
CCN(CCO)c1nc(OC[C@@H]2CCCN2C)nc2c(F)c(-c3ccc(F)c4sc(N)c(C#N)c34)c(C(F)(F)F)cc12 [Compound 179] | < 100 | 100 to 1000 | 100 to 1000 | 100 to 1000 | 100 to 1000 | 
CN(c1nc(OC[C@@]23CCCN2C[C@H](F)C3)nc2cc(-c3ccc(F)c4sc(N)c(C#N)c34)c(C#N)cc12)[C@H]1C[C@@H](O)C1 [Compound 29] | 100 to 1000 | 1000 to 10000 | 1000 to 10000 | 1000 to 10000 | 1000 to 10000 | 
C[C@H](O)C1CCN(c2nc(OC[C@@]34CCCN3C[C@H](F)C4)nc3c(F)c(-c4ccc(F)c5sc(N)c(C#N)c45)c(C(F)(F)F)cc23)CC1 [Compound 50] | 100 to 1000 | 1000 to 10000 | 1000 to 10000 | 100 to 1000 | 100 to 1000 | 
N#Cc1c(N)sc2c(F)ccc(-c3c(C(F)(F)F)cc4c(N(CCO)CCO)nc(OC[C@@]56CCCN5C[C@H](F)C6)nc4c3F)c12 [Compound 174] | < 100 | 100 to 1000 | < 100 | < 100 | < 100 | 
CCN(c1nc(OC[C@@]23CCCN2C[C@H](F)C3)nc2c(F)c(-c3ccc(F)c4sc(N)c(C#N)c34)c(C(F)(F)F)cc12)[C@@H]1CCN(C(C)=O)[C@@H]1COC [Compound 118] | < 100 | 100 to 1000 | 100 to 1000 | 100 to 1000 | 100 to 1000 | 
CCN(CCC#N)c1nc(OC[C@@]23CCCN2C[C@H](F)C3)nc2c(F)c(-c3ccc(F)c4sc(N)c(C#N)c34)c(C(F)(F)F)cc12 [Compound 166] | < 100 | 100 to 1000 | 100 to 1000 | 100 to 1000 | 100 to 1000 | 
N#Cc1c(N)sc2c(F)ccc(-c3c(C(F)(F)F)cc4c(N5CCC(F)CC5)nc(OC[C@@]56CCCN5C[C@H](F)C6)nc4c3F)c12 [Compound 151] | < 100 | 100 to 1000 | 100 to 1000 | 100 to 1000 | 100 to 1000 | 
CO[C@@H]1C[C@@H](COc2nc(N(C)C3CC(O)C3)c3cc(C(F)(F)F)c(-c4ccc(F)c5sc(N)c(C#N)c45)c(F)c3n2)N(C)C1 (stereo partly shown) [Compound 40] | < 100 | 100 to 1000 | 100 to 1000 | 100 to 1000 | 100 to 1000 | 
C[C@H]1CN(c2nc(OC[C@@]34CCCN3C[C@H](F)C4)nc3c(F)c(-c4ccc(F)c5sc(N)c(C#N)c45)c(C(F)(F)F)cc23)CCO1 [Compound 142] | < 100 | 1000 to 10000 | 100 to 1000 | 100 to 1000 | 100 to 1000 | 
N#Cc1c(N)sc2c(F)ccc(-c3c(C(F)(F)F)cc4c(N5CC(CO)C5)nc(OC[C@@]56CCCN5C[C@H](F)C6)nc4c3F)c12 [Compound 129] | < 100 | 100 to 1000 | 100 to 1000 | 100 to 1000 | 100 to 1000 | 
